In a melting point compilation (Tetko et al.; mined from patent text by program, amines drawn as free bases though some values may be those of a salt):

Compound | melting point
O=C(O)c1c2c(nc3ccc(F)cc13)-c1ccc(-c3ccccc3F)cc1CCCC2 | > 300 °C
CCOC(=O)C1=C(C)NC(C)=C(C(=O)OCCN2CCN(C(c3ccc(C)cc3)c3ccc(C)cc3)CC2)C1c1cccc(OC)c1 (stereo unspecified) | 75 to 78 °C
Cc1nc2c(C=O)cccn2c1[N+](=O)[O-] | 182 to 184 °C
O=C(O)c1ccc(-c2nc(-c3ccccc3)ccc2Cl)cc1 | 254 to 255 °C
O=C(Cc1cccnc1)N1CCC(C2=c3ccc(Cl)cc3=CCc3c(Cl)ccnc32)CC1 | 100 to 103 °C
Cn1nnnc1-c1cn(C)c2cc(Cl)c(F)cc2c1=O | 264 to 267 °C
COc1cccc(NC(=O)C2=C(O)c3ccc4ccccc4c3S(=O)(=O)N2C)c1 | 242 to 244 °C
CN(O)C(=O)Nc1ccc(S(C)(=O)=O)cc1 | 198 °C
CCCNC(=O)C1(CCCCSc2nc3ccc(OCC)cc3s2)c2ccccc2-c2ccccc21 | 112 to 114 °C
COc1cccc(CNC(=O)c2nc3ccc(F)c(OCCc4ccc(C(=O)O)cc4)c3c(=O)[nH]2)c1 | 227 to 229 °C
CCN(CC)CCOc1ccc(Nc2ncc3c(n2)N(C)C(=O)N(c2c(Cl)cccc2Cl)C3)cc1 | 123 to 124 °C
O=C(CC(F)=C(F)F)Nc1ccc(S(=O)(=O)O)cc1 | > 300 °C
O=Cc1ccc(O)c2oc3ccc([N+](=O)[O-])cc3c12 | > 270 °C
CCOc1cc([N+](=O)[O-])c2c(c1)C1(C)CCN(C)C1N2C (stereo unspecified) | 106 to 108 °C
CCc1cc(-c2nnc3c4ccccc4c(OCc4ncnn4C)nn23)no1 | 240 to 242 °C
OC(COc1cccc2ccccc12)CN1CCCC1 (stereo unspecified) | 68 to 70 °C
Cc1cc(-c2c(F)cc3c(=O)c(Cc4ccc(O)cc4)cn(C4CC4)c3c2F)cc(C)n1 | 258 to 259 °C
COc1ccc(-c2nc3ccc(OC)cc3c(Br)c2Cl)cc1 | 184 to 185 °C
Clc1ccc(-c2ccnc(Nc3nc4ccccc4[nH]3)n2)cn1 | 308 to 311 °C
COC1(c2ccc(C(C)C)cc2OCc2ccccc2)C(=O)c2ccccc2C1=O | 140 to 144 °C
O=C1CCC(n2cnc3cccc(Cl)c3c2=O)C(=O)N1 (stereo unspecified) | 308 to 310 °C
CS(=O)(=O)c1cccc(Nc2cc(-c3ccccc3O)ncn2)c1 | 214 to 216 °C
CCOP(=O)(Cc1ccccc1CN1C(=O)c2ccccc2C1=O)OCC | 91 to 92 °C
Nc1nc2ccccc2c2c1ncn2CCCCNC(=O)Oc1cccc2ccccc12 | 89 to 92 °C

Compound | melting point
COc1ccc(C2(c3ccc(OC)cc3)CN(c3ccc(S(C)(=O)=O)cc3)C(c3ccc(Cl)cc3)=N2)cc1 | 110 to 113 °C
O=C(N[C@@H](Cc1ccccc1)[C@H]1CO1)OCc1ccccc1 | 102 to 103 °C
O=C(c1ccc2nonc2c1)N1CC2CC1C(Cl)C2Cl (stereo unspecified) | 156 to 157 °C
CCCc1nc(C(=O)C(C)C)c(C#N)[nH]1 | 90.5 to 91 °C
COc1cc(-c2c(Cl)c(CN3C(=O)CCC3=O)nc3sc4c(c23)CCN(C(C)=O)C4)ccc1OC(C)C | 242 to 243 °C
COC(=O)c1ccc(O)cn1 | 188 to 190 °C
CN(C=O)C1(C(=O)O)CC1 | 210 °C
CNC(=O)Cc1cccc2c(C(C)C)nccc12 | 153 to 154 °C
Clc1ccc(C(=Cc2ccc(Cl)cc2Cl)CBr)cc1 | 128 °C
CN1CCN(C2=Nc3ccccc3C(O)(c3ccccc3)C2(C)C)CC1 (stereo unspecified) | 268 to 269 °C
Cc1noc([C@H]2CC[C@@](C)(NCC(=O)N3C[C@@H](F)C[C@H]3C#N)C2(C)C)n1 | 147 to 151 °C
CC(CNC(=O)c1c2ccccc2nc2c1[nH]c1ccccc12)N(C)C (stereo unspecified) | 188 to 189 °C
CC(=O)NCC1CN(c2ccc(N3CCC(C)(O)C(C)(C)C3)c(F)c2)C(=O)O1 (stereo unspecified) | 114 to 116 °C
Cc1ccc(-n2nc3c(cc2=O)CCc2sc(CO)cc2-3)cc1 | 166 to 169 °C
Cc1ccnc(N2CCN(CCCCC3Sc4ccccc4NC3=O)CC2)c1 (stereo unspecified) | 119 °C
Cc1cc2oc(=O)c3c(c2cc1C)CCNC3 | 173 to 175 °C
CCOC(=O)c1cc2ccc(Oc3ccc(N)cc3)cc2oc1=O | 136 to 138 °C
CCCN1CCN(C2=Nc3cc(Br)ccc3N3CCc4cccc2c43)CC1 | 134 to 136 °C
COc1ccc2c(c1)Sc1c(ccc(OC)c1C=O)N2C | 150 °C
COc1cc2c(N)nc(N3CCN(C(=O)C4COc5ccccc5O4)CC3)nc2c(OC)c1OC (stereo unspecified) | 269 to 271 °C
CCCCc1nc(C(O)CCC)c(C(N)=O)n1Cc1ccc(-c2ccccc2C(=O)O)cc1 (stereo unspecified) | > 110 °C
Cc1ccc(S(=O)(=O)N(C)c2ncc(Cl)cc2[N+](=O)[O-])cc1 | 141 to 143 °C
CC1(COc2ccc(CC3SC(=O)NC3=O)cc2)CCC(=O)CC1 (stereo unspecified) | 134 to 135 °C
Cc1nc(N2CCN(CCc3ccccc3)C2=O)sc1C(=O)NCc1ccccc1 | 156 to 157 °C

Compound | melting point
COCCOCC(=O)Nc1ccnn1-c1c(Cl)cc(C(F)(F)F)cc1Cl | 158 to 160 °C
O=C(CN1CCC(n2c(=O)[nH]c3ccccc32)CC1)c1ccc(OCc2ccccc2)c(OCc2ccccc2)c1 | 118 to 120 °C
Cn1c2ccc(Cl)cc2c(=O)n2nc(C(N)=O)cc12 | > 360 °C
CCCCCCCCCCCCC1(C(C(=O)Nc2c(C(C)C)cccc2C(C)C)c2ccccc2)C=CNO1 (stereo unspecified) | 107 to 108 °C
O=C(NC1CC1)c1ccccc1C(c1ccc(O)cc1)c1ccc(O)cc1 | 221 to 226 °C
COC(=O)c1cccc([N+](=O)[O-])c1N | 92 to 93 °C
COc1c(NC(=O)c2ccc(-c3ccncc3)cc2)cccc1N1CCN(C)CC1 | 153 to 155 °C
CC1(CN2CCCN(Cc3ccc(-c4ccccc4)cc3)CC2)Cn2cc([N+](=O)[O-])nc2O1 (stereo unspecified) | 138 to 142 °C
COCCOc1ccc(CCCNS(=O)(=O)Cc2ccccc2)c(Oc2ncc(C(F)(F)F)cc2Cl)c1 | 97 to 100 °C
CCc1cccc2c(C(C)=CC(=O)O)cc(OC)c(O)c12 | 114 to 115 °C
COC(C)C(=O)Nc1ccc(C2=NNC(=O)CC2C)cc1 (stereo unspecified) | 193 to 194 °C
COc1cc2cc(C(=O)O)oc(=O)c2cc1OC | 295 to 297 °C
COc1cccc(Sc2cccc(F)c2C#N)c1 | 99 to 100 °C
COc1c(C2CCN(CCCCNC(=O)c3[nH]nc(-c4ccc(C#N)cc4)c3C)CC2)ccc2c1CCCC2 | 222 °C
COc1cc(OC)cc(-c2nc(CCl)co2)c1 | 85 to 86 °C
CCOC(=O)c1cc2cc(OCCN(C)C)ccc2[nH]1 | 110 °C
COc1ccc(CSc2nc(NC(CO)CO)c3ncc(=O)[nH]c3n2)cc1Cl | 209 to 211 °C
Cc1c(C)c(N2CCN(c3ccc(F)cc3)CC2)c(C)c2c1OC(C)(C)C2=O | 176 to 179 °C
CCCN1C(=O)CN=C(N2CCCCCC2)c2ccccc21 | 115 to 118 °C
N=C(NC(=O)OCc1ccccc1)c1ccc(C(=O)NCCC(=O)NCCC(=O)OCc2ccccc2)cc1 | 165 to 166 °C
N#Cc1ccc(N(Cc2ccc(O)c(Br)c2)n2cnnc2)cc1-c1ccccc1 | 218 to 220 °C
Oc1ccc2nc(-c3cccc4c(Br)c(O)ccc34)oc2c1 | 221 to 223 °C
Cc1sc(C(=O)NN)c(S(N)(=O)=O)c1C#N | 186 to 191 °C
O=c1c2ccccc2ccn1Cc1ccc(F)cc1 | 107 °C

Compound | melting point
COc1cc(N2CCC(N3CCN(C)CC3)CC2)ccc1-c1nc2c(N[C@H]3[C@@H](C(N)=O)[C@@H]4C=C[C@H]3C4)c(Br)cnc2[nH]1 | 185 to 195 °C
CN(Cc1cccc(-c2ccc(CC3SC(=O)NC3=O)cc2)c1)C(=O)Cc1ccccc1 (stereo unspecified) | 73 °C
COc1ccc(S(=O)(=O)NCC2CCN(C[C@H]3COc4ccc(Cl)cc4O3)CC2)cc1 | 130 to 131 °C
O=C(NC(=O)c1c(Cl)cccc1Cl)Nc1cnc(-c2ccc(Cl)cc2)cn1 | 245 to 249 °C
O=C(Nc1cccnn1)N1CCN(c2nccc(-c3ccc(F)c(F)c3)n2)CC1 | 218 to 219 °C
CCCN1CCc2[nH]c3ccc4scc(-c5ccccc5)c4c3c2C1 | 187 to 188 °C
O=C1NC(=O)c2c1c(-c1ccccc1Cl)cc1[nH]c3ccc(C(O)CO)cc3c21 (stereo unspecified) | 265 to 268 °C
CCOC(=O)c1nc(NC)sc1-c1ccccn1 | 120 to 121 °C
CC(C)NCC1(O)COc2ccc(O)cc2OC1 (stereo unspecified) | 108 to 110 °C
Cc1ccc(S(=O)(=O)Oc2ccc(S(=O)(=O)C3Cc4ccccc4C3Cl)cc2)cc1 (stereo unspecified) | 176 °C
O=C1N[C@H](C(=O)NCCO[N+](=O)[O-])CO1 | 102 to 103 °C
CC(C)C1=C(c2ccc(F)cc2)C(=O)C(C(C)C)=C(C(C)C)C1=O | 122 to 124 °C
COc1ccc(C2(O)C=CC=CC2CCc2c(Cl)cncc2Cl)cc1OC1CCCC1 (stereo unspecified) | 129 to 130 °C
O=C1CCC(c2cccc(Cl)c2)(c2cccc(Cl)c2)[C@@H]2CN(C(=O)Cc3ccccc3)C[C@H]12 (racemic) | 160 °C
COc1cc(N)c(Cl)cc1C(=O)NCC1CN(CC2CCN(C(=O)N(C)C)CC2)CCO1 (stereo unspecified) | 179 to 180 °C
COc1ccc(Nc2c([N+](=O)[O-])ccc(Cl)c2C(=O)O)cc1 | 205 to 213 °C
CC(C)(S)CNc1ccccc1N | 38 to 40 °C
CS(=O)(=O)C(=C1CN(C(c2ccccc2)c2ccccc2)C1)c1cccc(I)c1 | 198 °C
CC(C)Oc1cccc(CC(=O)N2CCCC(CCN3CCC(C(=O)c4nc5ccccc5n4Cc4ccc(F)cc4)CC3)(c3ccc(Cl)c(Cl)c3)C2)c1 (stereo unspecified) | 70 to 73 °C
CCn1cccc1C(=O)C(C#N)C(=O)Nc1ccccc1 (stereo unspecified) | 77 to 79 °C
CN1C(=O)N(CCN2C(=O)N(C)C(O)C2O)C(O)C1O (stereo unspecified) | 158 to 161 °C
COc1ccc2c(Cc3ccc(OC4CCCC4N4CCCCC4)cc3)c(-c3ccc(OCCN4CCCC4)cc3)sc2c1 (stereo unspecified) | 61 to 64 °C
Cc1cc(-c2nnn(C)n2)cc(C)c1OCCCn1cncn1 | 76 to 78 °C
Cc1cc(C(=O)C2=NOC(c3cc(Cl)cc(Cl)c3)(C(F)(F)F)C2)ccc1S(=O)(=O)NCc1ccccn1 (stereo unspecified) | 57 to 58 °C
